Experimental data reported in US10112943B2, “Substituted imidazoles as gamma secretase modulators” (Janssen Pharmaceutica NV, priority 2012, dated 2018).

Legend:
γ-secretase [1] = molecular target: T1, γ-secretase (Homo sapiens, UniProt P49768); assay: Screening for γ-secretase-modulating activity: Aβtotal in cell supernatant (Alphalisa sandwich immuno-assay); type: cell-based; details: SKNBE2 human neuroblastoma cells carrying hAPP 695-wild type, overnight incubation
T1 construct: endogenous in cells; host or cells: SKNBE2 human neuroblastoma cells carrying hAPP 695 wild type
Procedure: (§1) A) Screening of the Compounds of the Invention for γ-Secretase-Modulating Activity
(§2) Screening was carried out using SKNBE2 human neuroblastoma cells carrying the hAPP 695-wild type, grown in Dulbecco's Modified Eagle's Medium/Nutrient mixture F-12 (DMEM/NUT-mix F-12) (HAM) provided by Invitrogen (cat no. 10371-029) containing 5% Serum/Fe supplemented with 1% non-essential amino acids, 1-glutamine 2 mM, Hepes 15 mM, penicillin 50 U/ml (units/ml) and streptomycin 50 μg/ml. Cells were grown to near confluency.
(§3) The screening was performed using a modification of the assay as described in Citron et al (1997) Nature Medicine 3: 67. Briefly, cells were plated in a 384-well plate at 10^4 cells/well in Ultraculture (Lonza, BE12-725F) supplemented with 1% glutamine (Invitrogen, 25030-024), 1% non-essential amino acid (NEAA), penicillin 50 U/ml en streptomycin 50 μg/ml in the presence of test compound at different test concentrations. The cell/compound mixture was incubated overnight at 37° C., 5% CO2. The next day the media were assayed by two sandwich immuno-assays, for Aβ42 and Aβtotal.
(§4) Aβtotal and Aβ42 concentrations were quantified in the cell supernatant using the Aphalisa technology (Perkin Elmer). Alphalisa is a sandwich assay using biotinylated antibody attached to streptavidin coated donorbeads and antibody conjugated to acceptor beads. In the presence of antigen, the beads come into close proximity. The excitation of the donor beads provokes the release of singlet oxygen molecules that trigger a cascade of energy transfer in the acceptor beads, resulting in light emission. To quantify the amount of Aβ42 in the cell supernatant, monoclonal antibody specific to the C-terminus of Aβ42 (JRF/cAβ42/26) was coupled to the receptor beads and biotinylated antibody specific to the N-terminus of Aβ (JRF/AβN/25) was used to react with the donor beads. To quantify the amount of Aβtotal in the cell supernatant, monoclonal antibody specific to the N-terminus of Aβ (JRF/AβN/25) was coupled to the receptor beads and biotinylated antibody specific to the mid region of Aβ (biotinylated 4G8) was used to react with the donor beads.
(§5) The sigmoidal dose response curves were analyzed using non-linear regression analysis with percentage of the control plotted against the log concentration of the compound. A 4-parameter equation was used to determine the IC50.

γ-secretase [2] = molecular target: T1, γ-secretase; assay: Screening for γ-secretase-modulating activity: Aβ42 in cell supernatant (Alphalisa sandwich immuno-assay); type: cell-based; details: SKNBE2 human neuroblastoma cells carrying hAPP 695-wild type, overnight incubation
Procedure: as §1, §2, §3, §4
To obtain the values reported in Table 3, the data are calculated as percentage of the maximum amount of amyloid Beta 42 measured in the absence of the test compound.
as §5

Row | SMILES | melting point [°C] | IC50 (γ-secretase [1]) [µM] | IC50 (γ-secretase [2]) [µM]
1 | Cc1cn(-c2ccc3n(c2=O)C[C@@H]2CC[C@@H](Cc4cc(C(F)(F)F)cc(C(F)(F)F)c4)N2C3=O)cn1 (single isomer, unassigned) [Compound 2, 3-[[3,5-bis(trifluoromethyl)phenyl]methyl]-2,3,11,11a-tetrahydro-8-(4-methyl-1H-imidazol-1-yl)-1H-pyrido[1,2-a]pyrrolo[1,2-d]pyrazine-5,9-dione ((3R, 11aR) or (3S, 11aS))] | 255.25 | > 10 | > 10
2 | Cc1cn(-c2ccc3n(c2=O)C[C@@H]2CCC[C@H](Cc4cc(C(F)(F)F)cc(C(F)(F)F)c4)N2C3=O)cn1 (single isomer, unassigned) [Compound 8, 10-[[3,5-bis(trifluoromethyl)phenyl]methyl]-6,6a,7,8,9,10-hexahydro-3-(4-methyl-1H-imidazol-1-yl)-dipyrido[1,2-a:1′,2-d]pyrazine-4,12-dione ((6aS, 10R) or (6aR, 10S))] | 247.06 | > 10 | 0.11
3 | Cc1cn(-c2ccc3n(c2=O)C[C@@H]2CCC[C@H](c4cc(C(F)(F)F)cc(C(F)(F)F)c4)N2C3=O)cn1 (single isomer, unassigned) [Compound 13, 10-[3,5-bis(trifluoromethyl)phenyl]-6,6a,7,8,9,10-hexahydro-3-(4-methyl-1H-imidazol-1-yl)-dipyrido[1,2-a: 1′,2′-d]pyrazine-4,12-dione ((6aS, 10R) or (6aR, 10S)] | – | – | > 10
4 | Cc1cn(-c2ccc3n(c2=O)C[C@@H]2CC[C@@H](c4cc(C(F)(F)F)cc(C(F)(F)F)c4)N2C3=O)cn1 [Compound 16, (3S,11aS)-3-[3,5-bis(trifluoromethyl)phenyl]-2,3,11,11a-tetrahydro-8-(4-methyl-1H-imidazol-1-yl)-1H-pyrido[1,2-a]pyrrolo[1,2-d]pyrazine-5,9-dione] | – | > 10 | 0.19
5 | Cc1cn(-c2ccc3n(c2=O)C[C@@H]2CCC[C@H](Cc4cc(C(F)(F)F)cc(C(F)(F)F)c4)N2C3=O)cn1 (single isomer, unassigned) [Compound 9, 10-[[3,5-bis(trifluoromethyl)phenyl]methyl]-6,6a,7,8,9,10-hexahydro-3-(4-methyl-1H-imidazol-1-yl)-dipyrido[1,2-a:1′,2-d]pyrazine-4,12-dione ((6aR, 10S) or (6aS, 10R))] | 246.53 | > 10 | 0.29
6 | Cc1cn(-c2ccc3n(c2=O)C[C@H]2CC[C@@H](c4ccc(Cl)c(Cl)c4)N2C3=O)cn1 [Compound 21, (3S,11aR)-3-(3,4-dichlorophenyl)-2,3,11,11a-tetrahydro-8-(4-methyl-1H-imidazol-1-yl)-1H-pyrido[1,2-a]pyrrolo[1,2-d]pyrazine-5,9-dione] | – | > 15.1 | 1.32
7 | Cc1cn(-c2ccc3n(c2=O)C[C@@H]2CCC[C@@H](Cc4cc(C(F)(F)F)cc(C(F)(F)F)c4)N2C3=O)cn1 (single isomer, unassigned) [Compound 10, 10-[[3,5-bis(trifluoromethyl)phenyl]methyl]-6,6a,7,8,9,10-hexahydro-3-(4-methyl-1H-imidazol-1-yl)-dipyrido[1,2-a:1′,2-d]pyrazine-4,12-dione ((6aS, 10S) or (6aR, 10R))] | 231.74 | 3.16 | 0.13
8 | Cc1cn(-c2ccc3n(c2=O)C[C@@H]2CC[C@H](Cc4cc(C(F)(F)F)cc(C(F)(F)F)c4)N2C3=O)cn1 (single isomer, unassigned) [Compound 5, 3-[[3,5-bis(trifluoromethyl)phenyl]methyl]-2,3,11,11a-tetrahydro-8-(4-methyl-1H-imidazol-1-yl)-1H-pyrido[1,2-a]pyrrolo[1,2-d]pyrazine-5,9-dione ((3R, 11aS) or (3S, 11aR))] | 238.34 | > 10 | 0.98
9 | Cc1cn(-c2ccc3n(c2=O)C[C@@H]2CC[C@H](Cc4cc(C(F)(F)F)cc(C(F)(F)F)c4)N2C3=O)cn1 (single isomer, unassigned) [Compound 3, 3-[[3,5-bis(trifluoromethyl)phenyl]methyl]-2,3,11,11a-tetrahydro-8-(4-methyl-1H-imidazol-1-yl)-1H-pyrido[1,2-a]pyrrolo[1,2-d]pyrazine-5,9-dione ((3S, 11aR) or (3R, 11aS))] | 241.17 | > 10 | 0.42
10 | Cc1cn(-c2ccc3n(c2=O)CC2CCC(Cc4cc(C(F)(F)F)cc(C(F)(F)F)c4)N2C3=O)cn1 (stereo not drawn) [Compound 1, 3-[[3,5-bis(trifluoromethyl)phenyl]methyl]-2,3,11,11a-tetrahydro-8-(4-methyl-1H-imidazol-1-yl)-1H-pyrido[1,2-a]pyrrolo[1,2-d]pyrazine-5,9-dione] | 234.89 | > 10 | 0.16
11 | Cc1cn(-c2ccc3n(c2=O)C[C@@H]2CCC[C@H](c4cc(C(F)(F)F)cc(C(F)(F)F)c4)N2C3=O)cn1 (single isomer, unassigned) [Compound 12, 10-[3,5-bis(trifluoromethyl)phenyl]-6,6a,7,8,9,10-hexahydro-3-(4-methyl-1H-imidazol-1-yl)-dipyrido[1,2-a: 1′,2′-d]pyrazine-4,12-dione ((6aR, 10S) or (6aS, 10R))] | – | > 10 | 0.24
12 | Cc1cn(-c2ccc3n(c2=O)C[C@H]2CC[C@@H](c4cc(C(F)(F)F)cc(C(F)(F)F)c4)N2C3=O)cn1 [Compound 19, (3S,11aR)-3-[3,5-bis(trifluoromethyl)phenyl]-2,3,11,11a-tetrahydro-8-(4-methyl-1H-imidazol-1-yl)-1H-pyrido[1,2-a]pyrrolo[1,2-d]pyrazine-5,9-dione] | – | > 10 | 0.72
13 | Cc1cn(-c2ccc3n(c2=O)C[C@@H]2CCC[C@@H](Cc4cc(C(F)(F)F)cc(C(F)(F)F)c4)N2C3=O)cn1 (single isomer, unassigned) [Compound 7, 10-[[3,5-bis(trifluoromethyl)phenyl]methyl]-6,6a,7,8,9,10-hexahydro-3-(4-methyl-1H-imidazol-1-yl)-dipyrido[1,2-a:1′,2′-d]pyrazine-4,12-dione ((6aR, 10R) or (6aS, 10S))] | 231.07 | > 10 | 1.12
14 | Cc1cn(-c2ccc3n(c2=O)C[C@H]2CC[C@H](c4ccc(Cl)c(Cl)c4)N2C3=O)cn1 [Compound 20, (3R,11aR)-3-(3,4-dichlorophenyl)-2,3,11,11a-tetrahydro-8-(4-methyl-1H-imidazol-1-yl)-1H-pyrido[1,2-a]pyrrolo[1,2-d]pyrazine-5,9-dione] | – | 9.33 | 4.47
15 | Cc1cn(-c2ccc3n(c2=O)C[C@@H]2CC[C@H](c4cc(C(F)(F)F)cc(C(F)(F)F)c4)N2C3=O)cn1 [Compound 18, (3R,11aS)-3-[3,5-bis(trifluoromethyl)phenyl]-2,3,11,11a-tetrahydro-8-(4-methyl-1H-imidazol-1-yl)-1H-pyrido[1,2-a]pyrrolo[1,2-d]pyrazine-5,9-dione] | – | > 10 | > 10
16 | Cc1cn(-c2ccc3n(c2=O)C[C@H]2CC[C@H](c4cc(C(F)(F)F)cc(C(F)(F)F)c4)N2C3=O)cn1 [Compound 15, (3R,11aR)-3-[3,5-bis(trifluoromethyl)phenyl]-2,3,11,11a-tetrahydro-8-(4-methyl-1H-imidazol-1-yl)-1H-pyrido[1,2-a]pyrrolo[1,2-d]pyrazine-5,9-dione] | – | > 10 | 4.57
